From US20220033363A1, “HERBICIDALLY ACTIVE SUBSTITUTED PHENYLPYRIMIDINE HYDRAZIDES” (Bayer Aktiengesellschaft, priority 2018, published 2022)

What was measured:
Assay type in all cases: in vivo
Stellaria media [1] = assay: Herbicidal pre-emergence action (Method B) against STEME; details: 504 h; for pest or weed control at 320 g/ha: dosage 320 g/ha; for pest or weed control at 1280 g/ha: dosage 1280 g/ha
From the text: (§1) Method B: Herbicidal Pre-Emergence Action Seeds of mono- and dicotyledonous weed plants are placed in plastic pots in sandy loam soil (doubly sown with one species each of mono- or dicotyledonous weed plants per pot) and covered with soil. The compounds of the invention, formulated in the form of wettable powders (WP) or as emulsion concentrates (EC), are then applied onto the surface of the covering soil as aqueous suspension or emulsion with addition of 0.5% additive at a water application rate equivalent to 600 liters per hectare. After the treatment, the pots are placed in a greenhouse and kept under good growth conditions for the trial plants. After about 3 weeks, the effect of the preparations is scored visually in comparison with untreated controls as percentages. For example, 100% action=the plants have died, 0% action=like control plants.

Stellaria media [2] = assay: Herbicidal post-emergence action (Method A) against STEME; details: 504 h, rated visually after about 3 weeks vs untreated controls
Method: (§2) Method A: Herbicidal Post-Emergence Action Seeds of mono- and dicotyledonous weed plants are placed in plastic pots in sandy loam soil (twin sowing with one species each of mono- or dicotyledonous weed plants per pot), covered with soil and cultivated in a greenhouse under controlled growth conditions. 2 to 3 weeks after sowing, the test plants are treated at the one-leaf stage. The compounds of the invention, formulated in the form of wettable powders (WP) or as emulsion concentrates (EC), are applied to the green parts of the plants as aqueous suspension or emulsion with addition of 0.5% additive at a water application rate equivalent to 600 liters per hectare. After the test plants have been kept in the greenhouse under optimum growth conditions for about 3 weeks, the activity of the preparations is rated visually in comparison to untreated controls. For example, 100% activity=the plants have died, 0% activity=like control plants.

harmful plants [3] = assay: Herbicidal pre-emergence action (Method B), summary statement; details: summary of tables B1-B12 (Method B)
From the text: as §1

Setaria viridis = assay: Herbicidal pre-emergence action (Method B) against SETVI; details: 1280 g/ha, scored visually after about 3 weeks vs untreated controls
From the text: as §1

Lolium rigidum [4] = assay: Herbicidal pre-emergence action (Method B) against LOLRI; details: 504 h, scored visually after about 3 weeks vs untreated controls
From the text: as §1

Lolium rigidum [5] = assay: Herbicidal post-emergence action (Method A) against LOLRI; details: rated visually after about 3 weeks vs untreated controls; for pest or weed control at 1280 g/ha: Lolium rigidum, post-emergence, 504 h
Method: as §2

Poa annua [6] = assay: Herbicidal pre-emergence action (Method B) against POAAN; details: 504 h, scored visually after about 3 weeks vs untreated controls
From the text: as §1

Poa annua [7] = assay: Herbicidal post-emergence action (Method A) against POAAN; details: 504 h, rated visually after about 3 weeks vs untreated controls; for pest or weed control at 320 g/ha: read-out: Post-emergence action at 320 g/ha against POANN; for pest or weed control at 1280 g/ha: read-out: Post-emergence action at 1280 g/ha against POANN
Method: as §2

Echinochloa crus-galli [8] = assay: Herbicidal post-emergence action (Method A) against ECHCG; details: rated visually after about 3 weeks vs untreated controls; for pest or weed control at 1280 g/ha: Echinochloa crus-galli, post-emergence, 504 h
Method: as §2

Matricaria inodora [9] = assay: Herbicidal pre-emergence action (Method B) against MATIN; details: Tripleurospermum inodorum, 504 h, scored visually after about 3 weeks vs untreated controls
From the text: as §1

Echinochloa crus-galli [10] = assay: Herbicidal pre-emergence action (Method B) against ECHCG; details: 504 h, scored visually after about 3 weeks vs untreated controls
From the text: as §1

Matricaria inodora [11] = assay: Herbicidal post-emergence action (Method A) against MATIN; details: 1280 g/ha; rated visually after about 3 weeks vs untreated controls
Method: as §2

Abutilon theophrast [12] = assay: Herbicidal post-emergence action (Method A) against ABUTH; details: rated visually after about 3 weeks vs untreated controls
Method: as §2

harmful plants [13] = assay: Herbicidal post-emergence action (Method A), summary statement; details: summary of tables A1-A11
Method: as §2

Amaranthus retroflexus = assay: Herbicidal post-emergence action (Method A) against AMARE; details: rated visually after about 3 weeks vs untreated controls
Method: as §2

Abutilon theophrast [14] = assay: Herbicidal pre-emergence action (Method B) against ABUTH; details: 1280 g/ha, scored visually after about 3 weeks vs untreated controls
From the text: as §1

SMILES | pest or weed control at 320 g/ha (Stellaria media [1]) [%] | pest or weed control at 1280 g/ha (Stellaria media [1]) [%] | pest or weed control at 320 g/ha (Stellaria media [2]) [%] | pest or weed control at 1280 g/ha (Stellaria media [2]) [%] | pest or weed control at 320 g/ha (Lolium rigidum [4]) [%] | pest or weed control at 1280 g/ha (Lolium rigidum [4]) [%] | pest or weed control at 1280 g/ha (Lolium rigidum [5]) [%] | pest or weed control at 320 g/ha (Poa annua [6]) [%] | pest or weed control at 1280 g/ha (Poa annua [6]) [%] | pest or weed control at 320 g/ha (Poa annua [7]) [%] | pest or weed control at 1280 g/ha (Poa annua [7]) [%] | pest or weed control at 1280 g/ha (Echinochloa crus-galli [8]) [%] | pest or weed control at 1280 g/ha (Matricaria inodora [9]) [%] | pest or weed control at 320 g/ha (Echinochloa crus-galli [10]) [%] | pest or weed control at 1280 g/ha (Echinochloa crus-galli [10]) [%] | Post-emergence action at 1280 g/ha against MATIN (Matricaria inodora [11]) [%] | other results
NNC(=O)c1nc(C2CC2)ncc1-c1ccccc1Cl [Example I-497, 5-(2-chlorophenyl)-2-cyclopropylpyrimidine-4-carbohydrazide] | 100 | 100 | 100 | 100 | 90 | 100 | 100 | 100 | 100 | 100 | 100 | 100 | 100 | 100 | 100 | – | herbicidal efficacy against harmful plants in pre-emergence treatment (harmful plants [3]): good herbicidal efficacy; Pre-emergence action against SETVI (Setaria viridis): 90%; pest or weed control at 320 g/ha (Matricaria inodora [9]; 320 g/ha): 100%
O=CNNC(=O)c1nc(C2CC2)ncc1-c1ccccc1Cl [Example I-516, 5-(2-chlorophenyl)-2-cyclopropyl-N′-formylpyrimidine-4-carbohydrazide] | 100 | 100 | 90 | 100 | 100 | 100 | 90 | 100 | 100 | 100 | 100 | 100 | 100 | – | 100 | 90 | Post-emergence action at 1280 g/ha against ABUTH (Abutilon theophrast [12]): 100%; herbicidal efficacy against harmful plants in the case of post-emergence treatment (harmful plants [13]): good herbicidal efficacy; Post-emergence action at 320 g/ha against ECHCG (Echinochloa crus-galli [8]; 320 g/ha): 90%
O=C(NNC(=O)c1nc(C2CC2)ncc1-c1ccccc1Cl)c1ccccn1 [Example I-527, 5-(2-chlorophenyl)-2-cyclopropyl-N′-(pyridin-2-ylcarbonyl)pyrimidine-4-carbohydrazide] | 100 | 100 | 100 | 100 | 90 | 100 | 100 | 100 | 100 | 100 | 100 | 90 | – | 90 | 100 | 90 | Post-emergence action at 320 g/ha against LOLRI (Lolium rigidum [5]; 320 g/ha): 100%; Post-emergence action at 1280 g/ha against AMARE (Amaranthus retroflexus): 100%; Pre-emergence action against ABUTH (Abutilon theophrast [14]): 90%
